According to ChEMBL document CHEMBL4613281, “Missing Selectivity of Targeted 4β-Phorbol Prodrugs Expected to be Potential Chemotherapeutics” (2020):
Active and inactive are the calls of the source. The calls are words filed in the database; no cut-off is given here. Starred links: 1 amine or outer side, 2 acyl side, 3 side chain; linkers in the order of their positions; H or OH if unused. Non-standard residues stand in square brackets, D forms with d. Residues, ends and D or L forms follow the SMILES beside them. *: point of attachment. X1 = CC(=O)O[C@@]12[C@H](O*)[C@@H](C)[C@@]3(O)[C@@H](C=C(CO)C[C@]4(O)C(=O)C(C)=C[C@@H]34)[C@@H]1C2(C)C; 12Ado = NCCCCCCCCCCCC(=O)O; Morpholide = C1CN(*)CCO1; CO = O=C([*:1])[*:2]

Experiments:
[1] = target: T1, Protein kinase C (PKC) (Homo sapiens) (UniProt O94806+P41743+P17252+P05129+Q05655+P05771+Q05513+Q02156+P24723+Q15139+Q04759); test: Activation of PKC in human 22Rv1 cells assessed as increase in ERK1/ERK2 phosphorylation at 20 uM incubated for 30 mins by Western blot analysis; assay type: cell-based; conditions: CWR22R
CWR22R [2] = test: Cytotoxicity against human 22Rv1 cells assessed as effect on cell membrane incubated for 72 hrs by LDH assay; assay type: functional, cell-based
PC-3 [3] = test: Cytotoxicity against human PC3 cells assessed as effect on cell membrane incubated for 72 hrs by LDH assay; assay type: functional, cell-based
DU-145 [4] = test: Antiproliferative activity against human DU145 cells at 40 uM incubated for 72 hrs by MTT assay relative to control; assay type: functional
CWR22R [5] = test: Up regulation of PCKalpha in human 22Rv1 cells at 20 uM incubated for 24 hrs by Western blot analysis; assay type: functional, cell-based
LNCaP [6] = test: Antiproliferative activity against human LNCAP cells at 40 uM incubated for 72 hrs by MTT assay relative to control; assay type: functional
LNCaP [7] = test: Cytotoxicity against human LNCAP cells assessed as effect on cell membrane incubated for 72 hrs by LDH assay; assay type: functional, cell-based
CWR22R [8] = test: Up regulation of PSMA in human 22Rv1 cells incubated for 72 hrs by Western blot analysis; assay type: functional, cell-based
CWR22R [9] = test: Up regulation of PCKalpha in human 22Rv1 cells incubated for 72 hrs by Western blot analysis; assay type: functional, cell-based
[10] = target: Protein kinase C alpha type (Homo sapiens) (UniProt P17252); test: Displacement of [3H]PDBu from recombinant human PKCalpha expressed in baculovirus infected Sf9 insect cells incubated for 10 mins by liquid scintillation counting method
CWR22R [11] = test: Up regulation of PCKdelta in human 22Rv1 cells incubated for 72 hrs by Western blot analysis; assay type: functional, cell-based
[12] = target: T1, Protein kinase C (PKC) (Homo sapiens); test: Activation of PKC in human DU145 cells assessed as increase in ERK1/ERK2 phosphorylation at 20 uM incubated for 30 mins by Western blot analysis; assay type: cell-based; conditions: DU-145
DU-145 [13] = test: Cytotoxicity against human DU145 cells assessed as effect on cell membrane incubated for 72 hrs by LDH assay; assay type: functional, cell-based
CWR22R [14] = test: Antiproliferative activity against human 22Rv1 cells at 40 uM incubated for 72 hrs by MTT assay relative to control; assay type: functional
PC-3 [15] = test: Antiproliferative activity against human PC3 cells at 40 uM incubated for 72 hrs by MTT assay relative to control; assay type: functional
LNCaP [16] = test: Antiproliferative activity against human LNCAP cells at 20 to 40 uM incubated for 72 hrs by MTT assay relative to control; assay type: functional
LNCaP [17] = test: Antiproliferative activity against human LNCAP cells incubated for 72 hrs in presence of pan-PKC inhibitor Go6983 by MTT assay; assay type: functional, cell-based
PC-3 [18] = test: Antiproliferative activity against human PC3 cells incubated for 72 hrs by MTT assay; assay type: functional, cell-based
LNCaP [19] = test: Antiproliferative activity against human LNCAP cells incubated for 72 hrs by MTT assay; assay type: functional, cell-based
DU-145 [20] = test: Antiproliferative activity against human DU145 cells incubated for 72 hrs by MTT assay; assay type: functional, cell-based
CWR22R [21] = test: Antiproliferative activity against human 22Rv1 cells incubated for 72 hrs by MTT assay; assay type: functional, cell-based
DU-145 [22] = test: Antiproliferative activity against human DU145 cells at 1 to 40 uM incubated for 72 hrs by MTT assay; assay type: functional, cell-based
LNCaP [23] = test: Antiproliferative activity against human LNCAP cells at 1 to 40 uM incubated for 72 hrs by MTT assay; assay type: functional, cell-based
PC-3 [24] = test: Antiproliferative activity against human PC3 cells at 1 to 40 uM incubated for 72 hrs by MTT assay; assay type: functional, cell-based
CWR22R [25] = test: Antiproliferative activity against human 22Rv1 cells at 1 to 40 uM incubated for 72 hrs by MTT assay; assay type: functional, cell-based
[26] = target: T1, Protein kinase C (PKC) (Homo sapiens); test: Activation of PKC in human DU145 cells assessed as increase in ERK1/ERK2 phosphorylation at 10 nM incubated for 30 mins by Western blot analysis; assay type: cell-based; conditions: DU-145
[27] = target: T1, Protein kinase C (PKC) (Homo sapiens); test: Activation of PKC in human 22Rv1 cells assessed as increase in ERK1/ERK2 phosphorylations at 10 nM incubated for 30 mins by Western blot analysis; assay type: cell-based; conditions: CWR22R

Row | SMILES | Activity [1] | Activity (CWR22R [2]) | Activity (PC-3 [3]) | Activity (CWR22R [5]) | Activity (LNCaP [6]) [%] | Activity (LNCaP [7]) | Activity (CWR22R [8]) | Activity (CWR22R [9]) | [3H]PDBu displacement (active/not active) [10] | Activity (CWR22R [11]) | Activity [12] | Activity (DU-145 [13]) | Activity (CWR22R [14]) [%] | Activity (PC-3 [15]) [%] | also measured
1 | CC(=O)O[C@@]12[C@H](OC(=O)CCCCCCCCCCCNC(=O)[C@@H](N)CC(C)C)[C@@H](C)[C@@]3(O)[C@@H](C=C(CO)C[C@]4(O)C(=O)C(C)=C[C@@H]34)[C@@H]1C2(C)C | Active | inactive | inactive | inactive | 60 | inactive | inactive | inactive | Active | inactive | Active | inactive | 10 | 30 | Activity (DU-145 [4]): 40%
2 | C/C=C(/C)C(=O)O[C@H]1C(C)=C2[C@H]([C@@H]1OC(=O)CCCCCCC)[C@@](C)(OC(C)=O)C[C@H](OC(=O)CCCCCCCCCCCNC(=O)C[C@H](N)C(=O)N[C@@H](CCC(=O)N[C@@H](CCC(=O)N[C@@H](CCC(=O)N[C@@H](CCC(=O)O)C(=O)O)C(=O)O)C(=O)O)C(=O)O)[C@@]1(O)[C@H]2OC(=O)[C@@]1(C)O [MIPSAGARGIN] |  |  |  |  | 35 |  |  |  |  |  |  |  | 40 | 32 | 
3 | CC(=O)O[C@@]12[C@H](OC(=O)CCCCCCCCCCCNC(=O)[C@H](CC(C)C)NC(=O)[C@H](CCC(N)=O)NC(=O)[C@H](CC(C)C)NC(=O)[C@H](CCCCN)NC(=O)[C@H](CO)NC(=O)[C@H](CO)NC(=O)[C@H](Cc3cnc[nH]3)NC(=O)N3CCOCC3)[C@@H](C)[C@@]3(O)[C@@H](C=C(CO)C[C@]4(O)C(=O)C(C)=C[C@@H]34)[C@@H]1C2(C)C ({Morpholide-CO}-HSSKLQL[12Ado]-X1) | Active | inactive | inactive |  |  | inactive |  |  | inactive |  | Active | inactive |  |  | Activity (LNCaP [16]): 32%; Activity (LNCaP [17]): inactive
4 | CC(=O)O[C@@]12[C@H](OC(=O)CCCCCCCCCCCNC(=O)C[C@H](N)C(=O)N[C@@H](CCC(=O)N[C@@H](CCC(=O)N[C@@H](CCC(=O)N[C@@H](CCC(=O)O)C(=O)O)C(=O)O)C(=O)O)C(=O)O)[C@@H](C)[C@@]3(O)[C@@H](C=C(CO)C[C@]4(O)C(=O)C(C)=C[C@@H]34)[C@@H]1C2(C)C | inactive | inactive | inactive | Active |  | inactive | inactive | inactive | Active | inactive | Active | inactive |  | 10 | 
5 | C/C=C(/C)C(=O)O[C@H]1C(C)=C2[C@H]([C@@H]1OC(=O)CCCCCCC)[C@@](C)(OC(C)=O)C[C@H](OC(=O)CCCCCCCCCCCNC(=O)C[C@H](N)C(N)=O)[C@@]1(O)[C@H]2OC(=O)[C@@]1(C)O |  |  |  |  | 4 |  |  |  |  |  |  |  | 27 | 15 | Activity (DU-145 [4]): 20%; Activity (PC-3 [18]): Dose-dependent effect; Activity (LNCaP [19]): Dose-dependent effect; Activity (DU-145 [20]): Dose-dependent effect; Activity (CWR22R [21]): Dose-dependent effect
6 | CC(=O)NCC(=O)N[C@@H](CCCCN)C(=O)N[C@@H](C)C(=O)N[C@@H](Cc1ccccc1)C(=O)N[C@@H](CCCNC(=N)N)C(=O)N[C@@H](CCCNC(=N)N)C(=O)N[C@@H](CC(C)C)C(=O)NCCCCCCCCCCCC(=O)O[C@@H]1[C@@H](C)[C@@]2(O)[C@@H](C=C(CO)C[C@]3(O)C(=O)C(C)=C[C@@H]23)[C@@H]2C(C)(C)[C@]12OC(C)=O (Ac-GKAFRRL[12Ado]-X1) | Active | inactive | inactive | inactive |  | inactive | inactive | inactive | Active | inactive | Active | inactive | 25 | 15 | 
7 | CC(=O)O[C@@]12[C@H](OC(=O)CCCCCCCCCCCNC(=O)C[C@H](N)C(C)C)[C@@H](C)[C@@]3(O)[C@@H](C=C(CO)C[C@]4(O)C(=O)C(C)=C[C@@H]34)[C@@H]1C2(C)C | Active | inactive | inactive | Active |  | inactive | inactive | inactive | Active | inactive | Active | inactive |  |  | Activity (DU-145 [22]): inactive; Activity (LNCaP [23]): inactive; Activity (PC-3 [24]): inactive; Activity (CWR22R [25]): inactive
8 | CCCCCCCCCCCCCC(=O)O[C@@H]1[C@@H](C)[C@@]2(O)[C@@H](C=C(CO)C[C@]3(O)C(=O)C(C)=C[C@@H]23)[C@@H]2C(C)(C)[C@]12OC(C)=O |  |  |  |  |  |  |  |  | Active |  |  |  |  |  | Activity [26]: Active; Activity [27]: Active
